The test system of one data set is HIV-1 (HXB2). The data set can be described thus: Plaque reduction assay in CD4+ HeLa cells of serially passaged virus. Type of data set: cell-based. In general terms: Plaques are areas of infected cells; plaque reduction assays count them against a control.
The subject of a further data set is HIV-1. As to the kind of experiment: HIV-1 infectivity on serial passage in MT-4 cells with drug. Format: cell-based.
Another data set has as its system HepG2 intact cells. The data set can be described thus: Cellular uptake of rhodamine-labeled DNase complexes, fluorimeter. The settings on record: 30 min incubation. Format: cell-based, human. The method, then:
(§1) The cellular uptake of bovine DNase I (DNase), DNase-PEG and DNase-PEG-R8 complex is evaluated using the HepG2 cell line (human hepatocarcinoma cells ATCC, No-HB-8065). […] DNase I is labeled with fluorescent rodamine (*) according to the manufacturer's instruction (Pierce, Inc., Rockford, Ill.). Penetration of *DNase-PEG-K-R8 into HepG2 cells is compared to that of *DNase and *DNase-PEG after 30 min of incubation with HepG2 cells in DMEM at 37° C.
(§2) To maintain the cells the growth medium 199 is used.

The test system of the next data set is HepG2 VV-infected cells. Type of data set: cell-based, human. The settings on record: 30 min incubation. The procedure: as §1, §2
For a further data set, the system named is cytomegalovirus (CMV). As to the kind of experiment: Anti-CMV activity in HEP-2 cells. The settings on record: for CMV Titer: single values.
In data set [1] the test system is mouse leukemia virus. As to the kind of experiment: Treatment of viral lymphatic leukemia in 9-10 month old AKR mice. Type of data set: in vivo. Particulars: 5 kUA/g s.c. every four days. The method, then: To study the treatment effect of DNase and TDNase, the experiment is carried out on 9-10 month old AKR mice with manifestations of lymphoid leukemia. A significant increase in the size of lymph nodes, thymus, liver and spleen and high mitotic index in lymphoid tissues is observed in these animals. The treated groups include 24 mice in each while the control group includes 19 mice. Administration of DNase I and TDNase every four days s.c., in a dose of 5,000 KuU/g body weight, results in a decrease of lymphatic tissues and mitotic index to normal levels, and in an increase in longevity of animals. However, a more profound effect is obtained in animals receiving TDNase than DNase, and receiving TDNase-PEG than TDNase, as is shown in Table 25.

Another data set deals with cytomegalovirus. The data set can be described thus: Antiviral activity of modified DNase I against cytomegalovirus in cell culture. The settings on record: 500 UA/ml, 48 h at 37° C.; for Virus Titer: single values.
The test system of data set [2] is mouse leukemia virus. As to the kind of experiment: Prevention of leukemia development in AKR mice. Format: in vivo. Particulars: 5,000 KuU/g s.c. every second day for a month. An excerpt: Leukemia in AKR mice is known to be promoted by mouse leukemia virus. The lymphoid tissues of AKR mice contain mouse leukemia virus, and spontaneously develop leukemia, at the age of 6-8 months.

Data set [3] has as its system Herpes simplex virus, type I (HSV-1). As to the kind of experiment: Anti-HSV-1 activity in HEP-2 cells. Format: cell-based. Particulars: for HSV Titer: single values.
A further data set has as its system Vaccinia virus. Type of data set: cell-based. The settings on record: 500 KuU/ml, 48 h at 37° C.
Data set [4] relates to dsDNA. Particulars: physiological monovalent cation strength; cited from earlier work.
The target in the next data set is S-protein (Bos taurus, UniProt P61823). The settings on record: N-terminal residues 1-15; cited from earlier work.
The next data set concerns avian adenovirus. Details: species or system chickens. Particulars: in vivo.
In data set [5] the test system is herpes virus simplex I (HSV-I). The data set can be described thus: Effect of tri-peptide P3 and P-PEG-R8 on replication of HSV-1 in vitro. The settings on record: for HSV Titer: single values. Type of data set: cell-based.
Data set [6] concerns dsDNA. The data set can be described thus: Hydrolysis of dsDNA in human serum by native, multi-charged and actin-resistant DNase I variants.
In the next data set the test system is ssRNA corona virus. As to the kind of experiment: Antiviral efficacy of pegylated human RNase I.
A further data set has as its system ssRNA coronavirus. The data set can be described thus: RNase A on virus replication in HEP-2 cells. The settings on record: 200 UA/ml.
Data set [7] relates to ssRNA equine encephalitis virus. Format: cell-based. Particulars: 500 UA/ml.
The test system of another data set is dsRNA reovirus. The data set can be described thus: RNase A on virus replication in HEP-2 cells. The settings on record: 200 UA/ml.
The test system of a further data set is honeybee paralysis virus. Format: in vivo, honeybees. Particulars: of 100 infected. The method, then:
Infectious titer of HBVP is […] per ml. The honeybees are infected by feeding the viral emulsion. Insects are sprayed by an aerosol of enzyme diluted in physiological solution 3 hours before the inoculation of virus. […] Treatment of insects 6 hours after inoculation of virus still protected them from development of disease.

Results on twelve molecules are retold here after patent publication US10335372B2, “Compositions with modified nucleases targeted to viral nucleic acids and methods of use for prevention and treatment of viral diseases” (priority 2004, dated 2019).

Numbering of substitutions follows the chain as printed. Names may count otherwise. “And” between values parts separate entries of the source, which are not always exact repeats. Equal values may be shown once. Read-outs that look alike come from different tables or passages of the source. Where no end group is shown, it is not given here. [ ]: non-standard residue; d: D form. Some results are limits rather than exact numbers.

`Cc1cn([C@H]2C[C@H](N=[N+]=[N-])[C@@H](CO)O2)c(=O)[nH]c1=O` [AZT]: in the data set on HIV-1 (HXB2) (sixth passage), the shift in sensitivity is above 1000 fold. Also, the IC50 in the data set on HIV-1 (HXB2) (virus of fourth passage in drug-treated MT-4 cells) is above 50 µM; with HIV-1 (HXB2) (virus of sixth passage) it was above 250 µM. Besides, the HIV-1 infectivity in the data set on HIV-1 (passage 0) turned out to be 2.8 log10TCID50/ml; in the data set on HIV-1 (passage 1) it was 2.6 log10TCID50/ml; with HIV-1 (passage 2) it was 3.8 log10TCID50/ml; in the data set on HIV-1 (passage 5) it was 4.7 log10TCID50/ml; in the data set on HIV-1 (passage 15), 5.9 log10TCID50/ml.
For *DNase, the “OD (430 nm), cellular uptake” value stood at 37 in the data set on HepG2 intact cells and 48 in the data set on HepG2 VV-infected cells.
Regarding DNase, the “Average Titer” value stood at 5.1 logTCD50/ml in the data set with cytomegalovirus (CMV) (50 UA/ml); 4.5 logTCD50/ml in the data set on cytomegalovirus (CMV) (100 UA/ml); 3.8 logTCD50/ml in the data set with cytomegalovirus (CMV) (500 UA/ml); 5.5 logTCD50/ml with cytomegalovirus (CMV) ([0] UA/ml); 6.5 logTCD50/0.1 ml in the data set on cytomegalovirus; 5.4 logTCD50/ml in data set [3] (10 UA/ml). Further, the “Average Titer” value is recorded as 5.1 logTCD50/ml in [3] (50 UA/ml), 4.5 logTCD50/ml in data set [3] (100 UA/ml) and 3.8 logTCD50/ml in data set [3] (500 UA/ml). In addition, the “CMV Titer” value in the data set with cytomegalovirus (CMV) (50 UA/ml) was 5.1 logTCD50/ml and 5.0 logTCD50/ml; in the data set on cytomegalovirus (CMV) (100 UA/ml) it was 4.6 logTCD50/ml and 4.5 logTCD50/ml and 4.7 logTCD50/ml; with cytomegalovirus (CMV) (500 UA/ml) it was 3.8 logTCD50/ml and 3.9 logTCD50/ml and 3.7 logTCD50/ml; in the data set with cytomegalovirus (CMV) ([0] UA/ml) it was 5.4 logTCD50/ml and 5.6 logTCD50/ml and 5.5 logTCD50/ml. In the data set with mouse leukemia virus [1], the “Liver” value was determined as 941 ± 33 g. Also, in the data set on mouse leukemia virus [1], the “Longevity (weeks)” value is 16 ± 1.0 weeks. In addition, the “Mitotic Index” value in the data set on mouse leukemia virus [1] is recorded as 0.18 ± 0.02. Further, the “Virus Titer” value in the data set on cytomegalovirus was 6.3 logTCD50/0.1 ml and 6.4 logTCD50/0.1 ml and 6.5 logTCD50/0.1 ml. Also, the development of leukemia entry with mouse leukemia virus [2] was “preclude the development of leukemia”. Besides, the “HSV Titer” value is 5.4 logTCD50/ml and 5.5 logTCD50/ml and 5.3 logTCD50/ml in data set [3] (10 UA/ml); 5.1 logTCD50/ml and 5.0 logTCD50/ml in [3] (50 UA/ml); 4.6 logTCD50/ml and 4.5 logTCD50/ml and 4.7 logTCD50/ml in data set [3] (100 UA/ml); 3.8 logTCD50/ml and 3.9 logTCD50/ml and 3.7 logTCD50/ml in data set [3] (500 UA/ml). The “Average log TCD50” value with Vaccinia virus is reported as 4.7 log TCD50. In addition, in the data set with Vaccinia virus (single values), the “log TCD50” value is 4.6 log TCD50 and 4.8 log TCD50.
Turning to “EndoG: sugar-nonspecific 29 kDa human endonuclease”, in the data set with dsDNA [4], the inhibition result is “about 15 fold”.
Turning to KETAAAKFERQHMDS [bovine S-peptide], on S-protein, the Kd is below 0.001 µM.
As to [dS]-His, in the data set on avian adenovirus, the chickens that survive amounted to 18.
In the data set on avian adenovirus, [dS]-His-[dD] [P3] returned a chickens that survive of 19. For the same molecule, the “Average Titer” value is given as 5.7 logTCD50/ml in data set [5] (10 UA/ml), 5.4 logTCD50/ml in [5] (50 UA/ml), 5.1 logTCD50/ml in data set [5] (100 UA/ml) and 4.8 logTCD50/ml in data set [5] (500 UA/ml). For the same molecule, the “HSV Titer” value in [5] (10 UA/ml) was 5.8 logTCD50/ml and 5.6 logTCD50/ml and 5.7 logTCD50/ml; in [5] (50 UA/ml) it was 5.5 logTCD50/ml and 5.4 logTCD50/ml and 5.3 logTCD50/ml; in data set [5] (100 UA/ml), 5.2 logTCD50/ml and 5.3 logTCD50/ml and 5.1 logTCD50/ml; in [5] (500 UA/ml), 4.8 logTCD50/ml and 4.9 logTCD50/ml and 4.7 logTCD50/ml.

B1: arDNase (+1): actin-resistant human DNase I with substitution A114R (protein, UniProt P24855 23-282, looked up, variant A114R)
Deoxyribonuclease-1: LKIAAFNIQTFGETKMSNATLVSYIVQILSRYDIALVQEVRDSHLTAVGKLLDNLNQDAPDTYHYVVSEPLGRNSYKERYLFVYRPDQVSAVDSYYYDDGCEPCGNDTFNREPRIVRFFSRFTEVREFAIVPLHAAPGDAVAEIDALYDVYLDVQEKWGLEDVMLMGDFNAGCSYVRPSQWSSIRLWTSPTFQWLIPDSADTTATPTHCAYDRIVVAGMLLRGAVVPDSALPFNFQAAYGLSDQLAQAISDHYPVEVMLK
With B1, in the data set on dsDNA [6], the “Average T50 (min) 50% DNA hydrolysis” value is 3 min. For the same molecule, in the data set on dsDNA [6] (single values of triplicate), the “Time T50 (min) 50% DNA hydrolysis” value was 2 min and 3 min and 4 min.

B2: (PNA)2-PEG-DNase: 18-mer bis-PNA complementary to viral DNA conjugated with forked 2×20 kDa PEG and human DNase I (conjugate, UniProt P24855 23-282, looked up)
Deoxyribonuclease-1: B1 Deoxyribonuclease-1 with R114A
modifications: forked 2x20 kDa PEG, bis-PNA
For the molecule B2, in the data set on cytomegalovirus, the “Average Titer” value was 0.3 logTCD50/0.1 ml; the “Virus Titer” value was 0.2 logTCD50/0.1 ml and 0.3 logTCD50/0.1 ml and 0.4 logTCD50/0.1 ml.

B3: PEG-DNase: human DNase I conjugated with PEG (Example 14) (conjugate, UniProt P24855 23-282, looked up)
Deoxyribonuclease-1: B1 Deoxyribonuclease-1 with R114A
modifications: PEG
Turning to B3, in the data set on cytomegalovirus, the “Average Titer” value turned out to be 3.4 logTCD50/0.1 ml; the “Virus Titer” value is 3.2 logTCD50/0.1 ml and 3.4 logTCD50/0.1 ml and 3.5 logTCD50/0.1 ml.

B4: pegylated RNase I: wild-type recombinant human RNase I reacted with mPEG-SS (conjugate, UniProt P07998 29-156, looked up)
Ribonuclease pancreatic: KESRAKKFQRQHMDSDSSPSSSSTYCNQMMRRRNMTQGRCKPVNTFVHEPLVDVQNVCFQEKVTCKNGQGNCYKSNSSMHITDCRLTNGSRYPNCAYRTSPKERHIIVACEGSPYVPVHFDASVEDST
modifications: mPEG-SS
As for B4, in the data set with ssRNA corona virus, the “antiviral efficacy compared with unpegylated enzyme” value is given as “enhances its antiviral efficacy”.

B5: RNase A: bovine RNase A (Examples 21, 23, 24, 28, 37, 40) (protein, UniProt P61823 27-150, looked up)
Ribonuclease pancreatic: KETAAAKFERQHMDSSTSAASSSNYCNQMMKSRNLTKDRCKPVNTFVHESLADVQAVCSQKNVACKNGQTNCYQSYSTMSITDCRETGSSKYPNCAYKTTQANKHIIVACEGNPYVPVHFDASV
As for B5, the “Average Titer” value was found to be 1.5 logTCD50/0.1 ml with ssRNA coronavirus, 5.26 logTCD50/0.1 ml in [7] and 4.0 logTCD50/0.1 ml in the data set with dsRNA reovirus. Besides, the Titer in the data set on ssRNA coronavirus (single values) is 1.4 logTCD50/0.1 ml and 1.6 logTCD50/0.1 ml and 1.5 logTCD50/0.1 ml; in data set [7] (single values), 5.2 logTCD50/0.1 ml and 5.4 logTCD50/0.1 ml; in the data set with dsRNA reovirus (single values), 4.0 logTCD50/0.1 ml and 4.1 logTCD50/0.1 ml and 3.9 logTCD50/0.1 ml. Moreover, the “Surviving Honeybees” value in the data set with honeybee paralysis virus (200 UA/ml) is 4; in the data set with honeybee paralysis virus (500 UA/ml), 11; in the data set with honeybee paralysis virus (1000 UA/ml), 67; with honeybee paralysis virus (1500 UA/ml), 100.

In general, IC50 refers to the midpoint of a concentration-inhibition curve. A low value points to greater potency. In general, Kd refers to the constant that tells how readily two partners part at equilibrium.
